Our source for the T/C values is PubChem BioAssay AID328 (DTP/NCI, 2004).

For the experiment, the system named is BDF1 mice, P388 leukemia ip, median survival T/C. As to the kind of experiment: NCI In Vivo Anticancer Drug Screen. Data for tumor model P388 Leukemia (intraperitoneal) in B6D2F1 (BDF1) mice. To be noted: endpoint: median survival time, higher = longer survival. As to the method: The antitumor activity of compounds was measured in mice bearing transplantable tumors. Survival or tumor size were measured and the results are expressed as the measurement made in the treated group (T) divided by the measurement made in the vehicle treated control group (C). The tumor model used in this assay is P388 Leukemia (intraperitoneal) in B6D2F1 (BDF1) mice

Setting [1] is: dose: 25.0 mg/kg/injection, schedule: Q01DX009 (ip), vehicle: saline with Tween-80.
[2] abbreviates: dose: 50.0 mg/kg/injection, schedule: Q01DX009 (ip), vehicle: saline with Tween-80.
The mark [3] stands for this setting: dose: 50.0 mg/kg/injection, schedule: Q04DX003 (ip), vehicle: saline with Tween-80.
[4] abbreviates: dose: 100.0 mg/kg/injection, schedule: Q01DX009 (ip), vehicle: saline with Tween-80.
Setting [5] is: dose: 100.0 mg/kg/injection, schedule: Q04DX003 (ip), vehicle: saline with Tween-80.
The mark [6] stands for this setting: dose: 200.0 mg/kg/injection, schedule: Q04DX003 (ip), vehicle: saline with Tween-80.
The mark [7] stands for this setting: dose: 200.0 mg/kg/injection, schedule: Q01DX009 (ip), vehicle: saline with Tween-80.
[8] abbreviates: dose: 400.0 mg/kg/injection, schedule: Q01DX009 (ip), vehicle: saline with Tween-80.
Where [9] appears, read: dose: 400.0 mg/kg/injection, schedule: Q04DX003 (ip), vehicle: saline with Tween-80.
Where [10] appears, read: dose: 100.0 mg/kg/injection, schedule: Q04DX002 (ip), vehicle: saline with Tween-80.
Where [11] appears, read: dose: 200.0 mg/kg/injection, schedule: Q04DX002 (ip), vehicle: saline with Tween-80.
[12] abbreviates: dose: 25.0 mg/kg/injection, schedule: Q01DX009 (ip), vehicle: Klucel (hydroxypropylcellulose) (HPC).
[13] abbreviates: dose: 50.0 mg/kg/injection, schedule: Q01DX009 (ip), vehicle: Klucel (hydroxypropylcellulose) (HPC).

Molecules are shown by their SMILES. Values joined by “and” are separate entries in the source; they are usually repeats but may differ in a detail not shown here. Equal values may be shown once. Inconclusive results and toxic doses are left out.

With `CCCNC1(C(N)=O)CCN(Cc2ccccc2)CC1`, the T/C by setting is: under setting [1], 107 % of control; (dose: 25.0 mg/kg/injection, schedule: Q04DX003 (ip), vehicle: saline with Tween-80) 104 % of control; under setting [2], 111 % of control; under setting [3], 86 % of control; under setting [4], 96 % of control; under setting [5], 95 % of control.
Regarding `Cn1ccoc1=NC1CCCCC1`, the T/C is 100 % of control under setting [3], 100 % of control under setting [5] and 109 % of control under setting [6].
As for `O=C(CNC(=O)Nc1n[nH]c(=S)s1)N/N=C/c1ccc2c(c1)OCO2`, the T/C is, setting by setting: under setting [2], 116 % of control; under setting [4], 100 % of control; under setting [7], 98 % of control.
Consider `CC(=O)OCc1cc2ccccc2nc1C`, for which the T/C under setting [5] is 100 % of control; the T/C under setting [7] is 95 % of control; the T/C under setting [6] was 104 % of control; the T/C under setting [8] was 95 % of control; the T/C under setting [9] was 100 % of control.
For the molecule `CC(C)(C)OC(=O)N/N=C1\CC2CCC1C2` (stereo unspecified), the T/C by setting is: (dose: 6.25 mg/kg/injection, schedule: Q01DX009 (ip), vehicle: saline with Tween-80) 96 % of control; (dose: 12.5 mg/kg/injection, schedule: Q01DX009 (ip), vehicle: saline with Tween-80) 96 % of control; (dose: 13.75 mg/kg/injection, schedule: Q04DX003 (ip), vehicle: Klucel (hydroxypropylcellulose) (HPC)) 95 % of control; under setting [1], 100 % of control; (dose: 27.5 mg/kg/injection, schedule: Q04DX003 (ip), vehicle: Klucel (hydroxypropylcellulose) (HPC)) 100 % of control; (dose: 35.0 mg/kg/injection, schedule: Q01DX009 (ip), vehicle: Klucel (hydroxypropylcellulose) (HPC)) 105 % of control. The T/C (dose: 55.0 mg/kg/injection, schedule: Q01DX009 (ip), vehicle: Klucel (hydroxypropylcellulose) (HPC)) is 100 % of control; the T/C (dose: 55.0 mg/kg/injection, schedule: Q04DX003 (ip), vehicle: Klucel (hydroxypropylcellulose) (HPC)) was 100 % of control; the T/C (dose: 80.0 mg/kg/injection, schedule: Q04DX003 (ip), vehicle: Klucel (hydroxypropylcellulose) (HPC)) is 105 % of control; the T/C (dose: 125.0 mg/kg/injection, schedule: Q04DX003 (ip), vehicle: Klucel (hydroxypropylcellulose) (HPC)) was 110 % of control.
For `O=S(=O)(Nc1ccccc1)c1ccc(C2CC3(Cl)C(Cl)=C(Cl)C2(Cl)C3(Cl)Cl)cc1` (stereo unspecified), the T/C is 91 % of control under setting [5], 91 % of control under setting [6] and 91 % of control under setting [9].
Regarding `CC(C)Oc1ccc(C(=O)NS(=O)(=O)c2ccc(N)cc2)cc1`, the T/C (dose: 100.0 mg/kg/injection, schedule: Q01DX001 (ip), vehicle: saline) was 113 % of control; the T/C (dose: 200.0 mg/kg/injection, schedule: Q01DX001 (ip), vehicle: saline) is 104 % of control; the T/C (dose: 400.0 mg/kg/injection, schedule: Q01DX001 (ip), vehicle: saline) is 100 % of control.
Consider `Nc1nc(=S)c2[nH]cnc2[nH]1`, for which the T/C (dose: 0.12 mg/kg/injection, schedule: Q01DX009 (ip), vehicle: acetone) was 91 % of control; the T/C (dose: 0.25 mg/kg/injection, schedule: Q01DX009 (ip), vehicle: acetone) is 100 % of control; the T/C (dose: 0.5 mg/kg/injection, schedule: Q01DX009 (ip), vehicle: acetone) was 104 % of control; the T/C (dose: 0.63 mg/kg/injection, schedule: Q01DX010 (ip), vehicle: saline) was 122 % of control; the T/C (dose: 1.0 mg/kg/injection, schedule: Q01DX009 (ip), vehicle: acetone) was 112 % of control; the T/C (dose: 1.25 mg/kg/injection, schedule: Q01DX010 (ip), vehicle: other) was 115 % of control. Also, the T/C is, setting by setting: (dose: 1.25 mg/kg/injection, schedule: Q01DX010 (ip), vehicle: saline) 159 % of control; (dose: 2.0 mg/kg/injection, schedule: Q01DX009 (ip), vehicle: acetone) 95 % of control; (dose: 2.5 mg/kg/injection, schedule: Q01DX010 (ip), vehicle: other) 111 % of control; (dose: 2.5 mg/kg/injection, schedule: Q01DX010 (ip), vehicle: saline) 104 % of control; (dose: 5.0 mg/kg/injection, schedule: Q01DX010 (ip), vehicle: other) 90 % of control and 100 % of control; (dose: 5.0 mg/kg/injection, schedule: Q01DX010 (ip), vehicle: saline) 100 % of control.
For the molecule `CC1(C)C2CCC1(C)C(Cl)C2` (stereo unspecified), the T/C is, setting by setting: under setting [10], 100 % of control; under setting [11], 103 % of control; (dose: 400.0 mg/kg/injection, schedule: Q04DX002 (ip), vehicle: saline with Tween-80) 107 % of control.
As to `COc1ccc(NC(C)=O)c(/C=N/Nc2ccc([N+](=O)[O-])cc2[N+](=O)[O-])c1`, the T/C is, setting by setting: (dose: 50.0 mg/kg/injection, schedule: Q04DX002 (ip), vehicle: saline with Tween-80) 89 % of control; under setting [10], 106 % of control; under setting [11], 106 % of control.
In the case of `Cc1ccc2n[nH]nc2c1`, the T/C under setting [12] was 99 % of control; the T/C under setting [13] was 111 % of control; the T/C (dose: 100.0 mg/kg/injection, schedule: Q01DX009 (ip), vehicle: Klucel (hydroxypropylcellulose) (HPC)) is 107 % of control; the T/C (dose: 200.0 mg/kg/injection, schedule: Q01DX009 (ip), vehicle: Klucel (hydroxypropylcellulose) (HPC)) was 102 % of control.
Turning to `Cc1cccc(NC(=O)NCCOC(=O)OCCNC(=O)Nc2cccc(C)c2C)c1C`, the T/C is 90 % of control under setting [4], 90 % of control under setting [7] and 113 % of control under setting [8].
As to `COC(=O)c1cc(=O)n(-c2cccc(F)c2)c(SC)n1`, the T/C by setting is: (dose: 100.0 mg/kg/injection, schedule: Q04DX003 (ip), vehicle: Klucel (hydroxypropylcellulose) (HPC)) 114 % of control; (dose: 200.0 mg/kg/injection, schedule: Q04DX003 (ip), vehicle: Klucel (hydroxypropylcellulose) (HPC)) 114 % of control.
Turning to `O=[N+]([O-])c1ccc(N=NNc2ccc(N=Nc3ccccc3)cc2)cc1`, the T/C is 109 % of control (dose: 12.5 mg/kg/injection, schedule: Q01DX009 (ip), vehicle: Klucel (hydroxypropylcellulose) (HPC)); 118 % of control under setting [12]; 95 % of control under setting [13]; 100 % of control (dose: 75.0 mg/kg/injection, schedule: Q01DX009 (ip), vehicle: Klucel (hydroxypropylcellulose) (HPC)); 95 % of control (dose: 115.0 mg/kg/injection, schedule: Q01DX009 (ip), vehicle: Klucel (hydroxypropylcellulose) (HPC)); 90 % of control (dose: 170.0 mg/kg/injection, schedule: Q01DX009 (ip), vehicle: Klucel (hydroxypropylcellulose) (HPC)).
